Test results from patent publication US20220375563A1, “METHOD AND APPARATUS FOR INDIVIDUALIZED ADMINISTRATION OF MEDICAMENTS FOR ENHANCED SAFE DELIVERY WITHIN A THERAPEUTIC RANGE” (UNIVERSITY OF MARYLAND, BALTIMORE, priority 2019, published 2022).
Read-outs that look alike come from different tables or passages of the source.

Columns and labels:
[1] = Therapeutic index (ratio between upper/lower bounds of therapeutic window); type: in vivo
Procedure: In various example embodiments, dosing is determined using some or all the steps of method 300 for medicaments listed in the following tables. For each medicament listed, a concentration window W or therapeutic index is listed in a third column. The therapeutic index (TI, also referred to as therapeutic ratio) is a quantitative measurement of the relative safety of a drug. It is a comparison of the amount of a therapeutic agent that causes the therapeutic effect to the amount that causes toxicity. As proposed herein, a cost function g(y) is based, at least in part, on a value in this third column. The Koopman Expectation is used in Equation 11 or Equation 12 with a quadrature procedure to deduce an optimum range or subset of the dosing range listed in the second column.

[2] = cited from earlier work; for Concentration range: Table 1 anti-epileptics, * uncertain reference range, ** well defined toxic range
[3] = Table 1 anti-epileptics; printed in place of a dose range; cited from earlier work

Work on `CC1CNc2c(cccc2S(=O)(=O)N[C@@H](CCCNC(=N)N)C(=O)N2CC[C@@H](C)C[C@@H]2C(=O)O)C1` (stereo partly shown) [Argatroban] yielded a Therapeutic index ([1]; Table 5 anticoagulants) of 1.7.

In the case of `NC(=O)N1c2ccccc2C=Cc2ccccc21` [Carbamazepine], the Therapeutic index ([1]; Table 7 antiepileptics) is listed as 3 and the Therapeutic window ([2]; Table 7 antiepileptics) is listed as 4 to 12 mg/L.

In the case of `CN1C(=O)CC(=O)N(c2ccccc2)c2cc(Cl)ccc21` [Clobazam], the Concentration range [2] is listed as “(0.03-0.3 mg/L)”.

In the case of `O=C1CN=C(c2ccccc2Cl)c2cc([N+](=O)[O-])ccc2N1` [Clonazepam], the Concentration range [2] is listed as “(0.02-0.07 mg/L)”.

For `[H]/N=C(/N)c1ccc(NCc2nc3cc(C(=O)N(CCC(=O)O)c4ccccn4)ccc3n2C)cc1` [Dabigatran], the Therapeutic index ([1]; Table 5 anticoagulants) is listed as 1.7 and the Concentration/biomarker range ([2]; Table 2 anticoagulants) is listed as “(60-200 mg/L or”.

In the case of `C[C@H]1O[C@@H](O[C@H]2[C@@H](O)C[C@H](O[C@H]3[C@@H](O)C[C@H](O[C@H]4CC[C@@]5(C)[C@H](CC[C@@H]6[C@@H]5C[C@@H](O)[C@]5(C)[C@@H](C7=CC(=O)OC7)CC[C@]65O)C4)O[C@@H]3C)O[C@@H]2C)C[C@H](O)[C@@H]1O` [Digoxin], the Concentration/biomarker range ([2]; Table 3 antiarrhythmics, AF) is listed as “(0.8-2: AF” and the Concentration/biomarker range ([2]; Table 3 antiarrhythmics, Cl) is listed as 0.5-1: Cl).

In the case of `CCC1(C)CC(=O)NC1=O` (stereo not shown) [Ethosuximide], the Concentration range [2] is listed as “(40-100 mg/L)”.

In the case of `CO[C@H]1C[C@@H]2CC[C@@H](C)[C@@](O)(O2)C(=O)C(=O)N2CCCC[C@H]2C(=O)O[C@H]([C@H](C)C[C@@H]2CC[C@@H](OCCO)[C@H](OC)C2)CC(=O)[C@H](C)/C=C(\C)[C@@H](O)[C@@H](OC)C(=O)[C@H](C)C[C@H](C)/C=C/C=C/C=C/1C` [Everolimus], the “Small change in concentration may lead to failure/serious AE (concentration range)” value ([2]; Table 4 immunosuppressants) is listed as “(3-8 ng/mL)”.

For `NC(=O)OCC(COC(N)=O)c1ccccc1` [Felbamate], the Therapeutic index ([1]; Table 7 antiepileptics) is listed as 2, the Concentration range [2] is listed as “(30-60 mg/L)*” and the Therapeutic window ([2]; Table 7 antiepileptics) is listed as 30 to 60 mg/L.

In the case of `NCC1(CC(=O)O)CCCCC1` [Gabapentin], the Concentration range [2] is listed as “(2-20 mg/L)”.

In the case of `Nc1nnc(-c2cccc(Cl)c2Cl)c(N)n1` [Lamotrigine], the Therapeutic index ([1]; Table 7 antiepileptics) is listed as 4.7, the Concentration range [2] is listed as “(3-14 mg/L)” and the Therapeutic window ([2]; Table 7 antiepileptics) is listed as 3 to 14 mg/L.

In the case of `CC[C@@H](C(N)=O)N1CCCC1=O` [Levetiracetam], the Concentration range [2] is given as “(12-46 mg/L)”.

In the case of `COc1c(C)c2c(c(O)c1C/C=C(\C)CCC(=O)O)C(=O)OC2` [Mycophenolate], the “Small change in concentration may lead to failure/serious AE (exposure range)” value ([2]; Table 4 immunosuppressants, not in label) is listed as “(30-60 mg*h/L”.

In the case of `CCC1(c2ccccc2)C(=O)NC(=O)NC1=O` [Phenobarbital], the Concentration range [2] is given as “(10-40 mg/L)”.

In the case of `O=C1NC(=O)C(c2ccccc2)(c2ccccc2)N1` [Phenytoin], the Therapeutic index ([1]; Table 7 antiepileptics) is listed as 2, the “Dose range: PK note” value [3] is listed as “(non-linear PK)” and the Concentration range [2] is listed as “(10-20 mg/L)”. For the same compound, the Therapeutic window ([2]; Table 7 antiepileptics) was 10 to 20 mg/L.

For `CCC1(c2ccccc2)C(=O)NCNC1=O` [Primidone], the Concentration range [2] is listed as “(5-10 mg/L)”.

In the case of `C=C[C@H]1C[N@@]2CC[C@H]1C[C@@H]2[C@@H](O)c1ccnc2ccc(OC)cc12` [Quinidine], the Therapeutic index ([1]; Table 6 antiarrhythmics) is listed as 2.5, the Concentration/biomarker range ([2]; Table 3 antiarrhythmics) is listed as “(2-5 mg/L)” and the Therapeutic window ([2]; Table 6 antiarrhythmics) is listed as 2 to 5 mg/L.

In the case of `CO[C@H]1C[C@@H]2CC[C@@H](C)[C@@](O)(O2)C(=O)C(=O)N2CCCC[C@H]2C(=O)O[C@H]([C@H](C)C[C@@H]2CC[C@@H](O)[C@H](OC)C2)CC(=O)[C@H](C)/C=C(\C)[C@@H](O)[C@@H](OC)C(=O)[C@H](C)C[C@H](C)/C=C/C=C/C=C/1C` [Sirolimus], the “Small change in concentration may lead to failure/serious AE (concentration range)” value ([2]; Table 4 immunosuppressants) is given as “(12-20 ng/mL)”.

In the case of `C=CC[C@@H]1/C=C(\C)C[C@H](C)C[C@H](OC)[C@H]2O[C@@](O)(C(=O)C(=O)N3CCCC[C@H]3C(=O)O[C@H](/C(C)=C/[C@@H]3CC[C@@H](O)[C@H](OC)C3)[C@H](C)[C@@H](O)CC1=O)[C@H](C)C[C@@H]2OC` [Tacrolimus], the “Small change in concentration may lead to failure/serious AE (concentration range)” value ([2]; Table 4 immunosuppressants) is given as “(5-15 ng/mL)”.

In the case of `Cc1ccsc1C(=CCCN1CCC[C@@H](C(=O)O)C1)c1sccc1C` [Tiagabine], the Therapeutic index ([1]; Table 7 antiepileptics) is listed as 10, the Concentration range [2] is listed as “(0.02-0.2 mg/L)*” and the Therapeutic window ([2]; Table 7 antiepileptics) is listed as 0.02 to 0.2 mg/L.

For `CC1(C)O[C@@H]2[C@@H](CO[C@@]3(COS(N)(=O)=O)OC(C)(C)O[C@@H]23)O1` [Topiramate], the Therapeutic index ([1]; Table 7 antiepileptics) is listed as 4, the Concentration range [2] is listed as “(5-20 mg/L)” and the Therapeutic window ([2]; Table 7 antiepileptics) is listed as 5 to 20 mg/L.

For `CCCC(CCC)C(=O)O` [Valproic acid], the Therapeutic index ([1]; Table 7 antiepileptics) is listed as 2, the “Dose range: PK note” value [3] is listed as “(non-linear PK)” and the Concentration range [2] is listed as “(50-100 mg/L)”. The Therapeutic window ([2]; Table 7 antiepileptics) was 50 to 100 mg/L.

In the case of `C=CC(N)CCC(=O)O` (stereo not shown) [Vigabatrin], the Concentration range [2] is listed as “(0.8-36 mg/L)”.

For `CC(=O)CC(c1ccccc1)c1c(O)c2ccccc2oc1=O` (stereo not shown) [Warfarin], the Therapeutic index ([1]; Table 5 anticoagulants) was 1.5.

For `NS(=O)(=O)Cc1noc2ccccc12` [Zonisamide], the Therapeutic index ([1]; Table 7 antiepileptics) is given as 4, the Concentration range [2] is given as “(10-40 mg/L)**” and the Therapeutic window ([2]; Table 7 antiepileptics) is given as 10 to 40 mg/L.
